Measurements from ChEMBL document CHEMBL1201862, “PubChem BioAssay data set” (2004).
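Briefly, cells in 96-well plates were exposed to five compound concentrations for 48 h, and endpoints were estimated by linear interpolation. GI50 is the concentration that inhibits growth by half.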 Activity calls are given as the source filed them. Rule as the data show it: active = GI50 up to about 1.1 µM and inactive = higher.

Tests used:
Experiment in all cases: NCI anticancer screen, dose series, 48 h
OVCAR-3 = tested on: OVCAR-3
UACC-257 = tested on: UACC-257
SN12C = tested on: SN12C
DU-145 = tested on: DU-145
NCI-H460 = tested on: NCI-H460
SNB-19 = tested on: SNB-19
HCT-116 = tested on: HCT-116
HCC 2998 = tested on: HCC 2998
RXF 393 = tested on: RXF 393
ACHN = tested on: ACHN
Malme-3M = tested on: Malme-3M
EKVX = tested on: EKVX
HL-60 = tested on: HL-60
OVCAR-5 = tested on: OVCAR-5
DLD-1 = tested on: DLD-1
MOLT-4 = tested on: MOLT-4
NCI-H226 = tested on: NCI-H226
SF-295 = tested on: SF-295
DMS-273 = tested on: DMS-273

Measured: GI50

CCOC(=O)/C(=C\c1ccc(O)c(OC)c1)C(=O)c1ccccc1
inactive: OVCAR-3 26.9 µM | UACC-257 18.4 µM | SN12C 11.1 µM | DU-145 23.1 µM | NCI-H460 22.2 µM | SNB-19 16.5 µM | HCT-116 10.6 µM | HCC 2998 19.6 µM | RXF 393 22.7 µM | ACHN 15.8 µM | Malme-3M 18.6 µM | EKVX > 38.9 µM | HL-60 10.4 µM | OVCAR-5 26.8 µM | DLD-1 17.8 µM | MOLT-4 12.4 µM | NCI-H226 23.2 µM | SF-295 18.9 µM

O=C1CCCCC1CN1CCCC1 (centres undefined)
inactive: OVCAR-3 > 100 µM | UACC-257 > 100 µM | SN12C > 100 µM | NCI-H460 > 100 µM | HCT-116 > 100 µM | HCC 2998 > 100 µM | DMS-273 > 100 µM | ACHN > 100 µM | Malme-3M > 10 µM | EKVX > 100 µM | HL-60 > 10 µM | OVCAR-5 > 100 µM | DLD-1 > 100 µM | MOLT-4 > 100 µM | NCI-H226 > 100 µM | SF-295 > 100 µM

O=C1c2ccccc2C2(O)c3cc4ccccc4cc3OC12O (centres undefined)
inactive: OVCAR-3 53.6 µM | UACC-257 30 µM | SN12C 92.5 µM | NCI-H460 76.7 µM | SNB-19 31.2 µM | HCT-116 69 µM | HCC 2998 54 µM | RXF 393 29.2 µM | DMS-273 46.8 µM | ACHN 97.3 µM | Malme-3M 47.1 µM | EKVX 41.7 µM | OVCAR-5 > 100 µM | DLD-1 > 100 µM | MOLT-4 37.7 µM | NCI-H226 42.4 µM | SF-295 34.2 µM

O=C(NCc1ccncc1)C1COc2cc(-c3cc(=O)c4ccccc4o3)ccc2O1 (centres undefined)
inactive: OVCAR-3 > 100 µM | UACC-257 > 100 µM | SN12C > 100 µM | NCI-H460 > 100 µM | HCT-116 > 100 µM | HCC 2998 > 100 µM | RXF 393 > 100 µM | ACHN > 100 µM | Malme-3M > 100 µM | EKVX > 100 µM | HL-60 > 100 µM | OVCAR-5 > 100 µM | DLD-1 > 100 µM | MOLT-4 > 100 µM | SF-295 > 100 µM

CC(=O)NN1C(=O)C(Cc2ccccc2)c2ccccc21 (centres undefined)
inactive: OVCAR-3 > 100 µM | UACC-257 > 100 µM | SN12C > 100 µM | NCI-H460 > 100 µM | SNB-19 > 100 µM | HCT-116 > 100 µM | HCC 2998 > 100 µM | DMS-273 > 100 µM | ACHN > 100 µM | Malme-3M > 100 µM | EKVX > 100 µM | OVCAR-5 > 100 µM | DLD-1 > 100 µM | MOLT-4 > 100 µM | NCI-H226 > 100 µM | SF-295 > 100 µM

COc1cc2c(cc1OC)C(C#N)(Cc1ccccc1)N(C(=O)c1ccccc1)C=C2 (centres undefined)
inactive: OVCAR-3 > 100 µM | UACC-257 50.6 µM | SN12C > 100 µM | NCI-H460 46.3 µM | SNB-19 > 100 µM | HCT-116 50.9 µM | HCC 2998 > 100 µM | RXF 393 24.4 µM | DMS-273 60.7 µM | ACHN 82.8 µM | Malme-3M > 100 µM | EKVX 39.6 µM | HL-60 36.4 µM | OVCAR-5 > 100 µM | MOLT-4 32.5 µM | NCI-H226 63 µM | SF-295 > 100 µM

CCSc1nc(-c2ccc(OC)cc2)c(C#N)c(=O)n1C1OCC(OC(C)=O)C(OC(C)=O)C1OC(C)=O (centres undefined)
inactive: UACC-257 > 100 µM | SN12C > 100 µM | NCI-H460 > 100 µM | SNB-19 > 100 µM | HCT-116 > 100 µM | HCC 2998 > 100 µM | RXF 393 > 100 µM | DMS-273 > 100 µM | ACHN > 100 µM | Malme-3M > 100 µM | EKVX > 100 µM | OVCAR-5 > 100 µM | DLD-1 > 100 µM | MOLT-4 43.5 µM | NCI-H226 > 100 µM | SF-295 > 100 µM

O=C(Cc1nc2ccccc2o1)C(=O)Nc1ccc(Cl)cc1Cl
inactive: OVCAR-3 > 100 µM | UACC-257 > 100 µM | SN12C > 100 µM | NCI-H460 > 100 µM | SNB-19 > 100 µM | HCT-116 > 100 µM | HCC 2998 > 100 µM | RXF 393 > 100 µM | DMS-273 > 100 µM | ACHN > 100 µM | Malme-3M > 100 µM | EKVX > 100 µM | OVCAR-5 > 100 µM | DLD-1 > 100 µM | NCI-H226 > 100 µM | SF-295 > 100 µM

Nc1ccc(C(=O)NN2C(=O)C(Cl)C2c2ccccc2)cc1 (centres undefined)
inactive: OVCAR-3 > 100 µM | UACC-257 > 100 µM | SN12C > 100 µM | NCI-H460 > 100 µM | SNB-19 > 100 µM | HCT-116 > 100 µM | HCC 2998 > 100 µM | DMS-273 > 100 µM | ACHN > 100 µM | Malme-3M > 100 µM | EKVX > 100 µM | OVCAR-5 > 100 µM | DLD-1 > 100 µM | MOLT-4 > 100 µM | NCI-H226 > 100 µM | SF-295 > 100 µM

CC(=O)OCC1OC(n2c(-c3ccc(N)cc3)cc(-c3ccco3)c(C#N)c2=O)C(OC(C)=O)C(OC(C)=O)C1OC(C)=O (centres undefined)
inactive: OVCAR-3 > 50 µM | UACC-257 > 50 µM | SN12C > 50 µM | SNB-19 > 50 µM | HCT-116 2.3 µM | HCC 2998 > 50 µM | RXF 393 > 50 µM | DMS-273 5.26 µM | ACHN > 50 µM | Malme-3M > 50 µM | EKVX > 50 µM | OVCAR-5 > 50 µM | DLD-1 > 50 µM | MOLT-4 > 50 µM | SF-295 28 µM

ClC1=C(Cl)C(Cl)(Cl)c2c3c(c4c(c21)C(Cl)(Cl)C(Cl)=C4Cl)C(Cl)(Cl)C(Cl)=C3Cl
inactive: OVCAR-3 > 100 µM | UACC-257 > 100 µM | SN12C > 100 µM | NCI-H460 > 100 µM | SNB-19 > 100 µM | HCT-116 > 100 µM | HCC 2998 > 100 µM | DMS-273 > 100 µM | ACHN > 100 µM | Malme-3M > 100 µM | EKVX > 100 µM | HL-60 > 100 µM | MOLT-4 > 100 µM | NCI-H226 > 100 µM | SF-295 > 100 µM

O=C(c1ccccc1)[C@@H]1C[C@H](Sc2ccccc2)c2cc(Cl)ccc2N1
inactive: OVCAR-3 23 µM | UACC-257 17.1 µM | SN12C 15.7 µM | NCI-H460 26.5 µM | SNB-19 43.3 µM | HCT-116 23.1 µM | HCC 2998 20.5 µM | RXF 393 6.64 µM | DMS-273 24 µM | ACHN 29.2 µM | Malme-3M 32.4 µM | EKVX 10 µM | OVCAR-5 37.6 µM | DLD-1 23.4 µM | MOLT-4 7.08 µM | NCI-H226 25.6 µM | SF-295 28.1 µM
